Experiments:
[1] = test system: malonic dialdehyde (MDA) production in living human skin explants; assay: Ex-vivo study on living human skin explants: MDA investigation of the culture medium (TBAR, spectrofluorimetry); format: cell-based; conditions: for MDA concentration in the culture medium of the explant treated with substance and the irritant (average) / MDA concentration in the culture medium of the explant treated without irritant, but with substance (average): 0.5% solution in ethanol (gel D as such), day 4; for MDA concentration in the culture medium of the explant treated with substance and the irritant (average): 2 mg/cm^2 once daily D0-D3, irritant (metals/heavy metals + 0.1% diesel particles PM2.5) 24 h, irritant only 143.6, untreated 98.3; for Average MDA concentration in the presence of substance attributable to the irritant alone: difference with irritant minus without irritant, irritant alone without substance 45.3; for Lower MDA production (change) versus irritant only: explants with substance and irritant, compared with explant treated only with irritant; for MDA concentration in the culture medium of the explant treated without irritant, but with substance (average): no irritant, once daily D0-D3, untreated 98.3; for Hindrance of MDA production standardised to the amount of MDA released only by the irritant: standardised to MDA attributable to irritant alone (45.3 nmol/l)
Procedure: (§1) An ex-vivo study was carried out on skin explants from a person […] (P1922-AB54). The explants are kept in a functioning state in a BEM culture medium (explants medium from BIO-EC) at 37° C. in a moist atmosphere containing 5% of CO2. 4 explants are used in each case in an experimental series of a substance, the control or the reference.
(§2) Compounds A and B to be investigated are employed in 0.5% solution in ethanol. The influence of ethanol on the explant is investigated in parallel (compound C=ethanol). The reference employed is the gel from DECLÉOR with the article number 56300 (gel D; decléor gelée hydratante anti-pollution), which is known for its protection of the skin against chemicals, heavy metals and diesel particles. The control used is an untreated sample which only comes into contact with the culture medium.
(§3) The explants are treated once daily for 4 days (day 0=D0, day 1=D1, day 2=D2 and day 3=D3) with the solutions to be tested containing compound A and B as well as compound C and gel D (2 μl per explant corresponding to 2 mg/cm^2). On D3, the solutions to be tested and the reference are treated 4 hours before application of the irritant.
(§4) On D3, the explants are treated with the irritant containing the metals/heavy metals and diesel particles, as described above, where a paper disc with a diameter of 9 mm is soaked with 30 μl of the irritant. The irritant acts on the respective explant for 24 hours.
The culture medium of the treated explants is investigated for the compound MDA. MDA stands for malonic dialdehyde (propanedial) and is a known marker for oxidative stress, as described above.
The culture medium of each investigated explant is mixed with a salt medium (HBBS Medium Hank's Balanced Salts) and a TBAR solution and heated in a water bath at 80° C. for 15 minutes. The TBAR solution contains thiobarbituric acid, hydrochloric acid and trichloroacetic acid. Many substances which are unrelated to the lipoperoxidation react with the thiobarbituric acid, for example glucose. After cooling, malonic dialdehyde (MDA) is extracted with butanol in a liquid/liquid extraction, and the then investigated by spectrofluorimetry (excitation 515 nm, emission: 550 nm). The MDA concentration indicated below is quoted in nmol/l.
1. For interpretation of the results, it is taken into account that the culture medium of the untreated explants (without irritant and without compounds A, B, C and gel D) also contains MDA on day 4.
For analysis of the results, this amount of MDA present on average in the untreated explants is therefore subtracted from the values obtained for the explant samples in order to determine the influence of MDA production owing to the irritant.

[2] = test system: epidermis of living human skin explants; assay: Ex-vivo study on living human skin explants: histological investigation (Masson's trichrome staining); format: cell-based; conditions: for Epidermal morphological change compared with the untreated sample: explants treated with substance and the irritant, day 4, Masson staining
Procedure: as §1, §2, §3, §4
On day 4 (D4), three explants are collected for each of the compounds to be investigated. Each explant is divided, and one part is frozen at −80° C., the second half is fixed in a buffered formol solution (formaldehyde solution). The fourth explant remains frozen at −80° C.
The explants fixed for 24 hours are dehydrogenated and impregnated in paraffin. Areas with a thickness of 5 μm are then cut and investigated under the microscope (for example Leica DMLB or Olympus BX43). Corresponding images are produced, using the Masson staining method (Masson's trichrome staining, Goldner variant), a standard colouring method in histology. […]

[3] = test system: interleukin 8; conditions: skin irritated by phorbol 12-myristate 13-acetate (PMA); cited from earlier work

SMILES | MDA concentration in the culture medium of the explant treated with substance and the irritant (average) [1] [nmol/L] | Average MDA concentration in the presence of substance attributable to the irritant alone [1] [nmol/L] | Lower MDA production (change) versus irritant only [1] [%] | MDA concentration in the culture medium of the explant treated without irritant, but with substance (average) [1] [nmol/L] | Hindrance of MDA production standardised to the amount of MDA released only by the irritant [1] [%] | Epidermal morphological change compared with the untreated sample [2] | Worsening of the condition of the epidermis (score of detectable changes) ([2]; explants with substance and irritant, compared with untreated control and with compound A plus irritant) | Excretion of cytokines, in particular interleukin 8 [3]
COc1cc(C=C(C(=O)OC(C)C)C(=O)OC(C)C)ccc1O [compound B, diisopropyl 3-methoxy-4-hydroxybenzylidenemalonate] | 135.5 | 41.9 | 6 | 93.6 | 8 | an epidermal morphological change | about 55% | reduces the excretion of cytokines
CCCCC(CC)COC(=O)C(=Cc1cc(OC)c(O)c(OC)c1)C(=O)OCC(CC)CCCC (centres unmarked) [compound A, di(2-ethylhexyl) 3,5-dimethoxy-4-hydroxybenzylidenemalonate] | 129.0 | 34.3 | 10 | 94.7 | 24 | no epidermal change | – | –
